Measurements from patent US20070166547A1, “Use of a layer consisting of hydrophobic linear, or two-dimensional polycyclic aromatics as a barrier layer or an encapsulation and electric components constructed with a layer of this type and comprising organic polymers” (priority 2003, published 2007).

Legend:
[1] = tested on: adenosine-sensitive receptors of thrombocytes; test: ADP-induced aggregation of thrombocytes in vitro (Born method); assay type: cell-based, rabbit; conditions: 3 min incubation, ADP 10^−5 M
Procedure: The compounds according to the invention were studied for the effect of aggregation of thrombocytes induced by a preliminary introduction of a solution of an aggregation inductor with a competing introduction of the compounds according to the invention.
The aggregation of thrombocytes was studied by the Born method based on determination of the changes in the optical density of plasma enriched with thrombocytes after its incubation with an aggregation inductor.
Adenozinediphosphoric acid (ADP) was selected as an aggregation inductor, which in fact is an aggregation generator. Use was made of a sample (registration number 885) of the Sigma Diagnostics Company (USA) in final concentration of 10^−5 M.
The experiments were carried out on male rabbits of the “Chinchilla” breed having a mass of 2.7±0.3 kg. 18-24 hours prior to the experiment they were deprived of feed while preserving free access to water.
To obtain plasma enriched with thrombocytes, blood was taken from a cut of a marginal vein of the rabbit ear, the sample was stabilized with 3.8% of sodium citrate solution in a ratio of 9:1 and centrifuged at 200 g (1000 rev/min) for 10 minutes. The top supernatant layer enriched with thrombocytes was transferred by an automatic dropper into a silicone test tube and kept at 37° C. The plasma enriched with thrombocytes contained, on the average, […]. If this content exceeded the specified 3×10^8 blood platelets in 1 liter, this sample was diluted to the necessary concentration with plasma deprived of thrombocytes, which was obtained by centrifuging blood at 650 g during 10 minutes.
The measurements of the optical density of the samples were made on two-channel aggregometer of the “Chronolog” Company (USA). A flask containing 490 mkl of plasma rich with thrombocytes was placed in a device, into which a magnetic agitator covered with Teflon was lowered. The index of maximum amplitude of aggregation (MA) in percent of a fall of the plasma optical density under effect of the aggregation inductor was recorded. The control index MA of plasma was compared with the MA of plasma incubated for 3 minutes with different concentrations of the compounds: from 10^−3 to 10^−7 in vitro experiments or with plasma obtained 15, 30, 60 and 120 minutes after intravenous administration of different doses of the compounds in vivo experiments.
The process of aggregation of thrombocytes was recorded with the help of a computer; on the monitor screen the there were depicted curves reflecting changes of the optical density of the plasma enriched which was taken as a standard 100% compared to the optical density of the non-thrombocyte plasma taken for 0% content of thrombocytes.
Under in vitro conditions a flask was filled with blood plasma enriched with thrombocytes, to which an aggregation inductor ADP was added at a concentration of 10^−5 M, incubated for 3 minutes, and then the compounds according to the invention were introduced directly into the flask. Their action by aggregation of thrombocytes was studied after 3-minute incubation in a wide range of concentrations from 10^−3 to 10^−7 M to minimum concentration of 10^−7 M not inducing no effect of suppressing the aggregation.

[2] = Polarographic study of electrochemical reduction (electrochemical activity); assay type: physicochemical; conditions: for i, mkA (polarographic wave current) / −E1/2, V (half-wave potential vs SCE): 37° C., forward trace, average for the group; for i, mkA (polarographic wave current): 9·10^−4 M
Procedure: The study was carried out on a general-purpose polarograph PU-1 with a two-coordinate recorder of the “LKD” type using a three-electrode thermostatically controlled polarographic cell and mercury dripping electrode (MDE) with forced separation of the drop and a dropping period of 0.5 second. A platinum wire was used as an auxiliary electrode and a saturated calomel electrode (SCE) was used as a control electrode.
2.0% solutions of sodium chloride having pH 7.0, 7.2, 7.4, 7.6 were used as a background; the pH values of the background solution were corrected by a solution of sodium hydroxide. The polarographic cell was filled with 5.0 ml of the background solution and for 5 minutes was purged with nitrogen for removing the dissolved oxygen. Then 0.5 ml of solution of the studied substance was added to the background solution, and the polarogram was recorded as a polarographic wave. The concentration of the compounds in the polarographic cell was 9·10^−4 M.
The pH was measured on the pH-meter with an accuracy of ±0.05 pH units. The polarographic measurements were carried out at a temperature of 37° C. The recording of polarograms of the investigated materials was effected under conditions of DC current at a scanning rate of the potential 10.0 mV/s with a active scanning stroke from a potential 0 to −0.5 V and sweep retrace from a −0.5 V to 0. The electric-current sensitivity was 5.0 mkA. The scale by the coordinate of the potentials was 50.0 mV/cm. The values of potentials of the half-wave E1/2 of the investigated materials are given with respect to the SCE potential.
The polarogram parameters such as a limiting current ilim and E1/2 were determined by the graphic method. The number of electrons participating in the reaction was calculated on the basis of the analysis of the polarographic wave using the Geirovsky-Ilkovich equation.

[3] = tested on: synthase of nitrogen oxide (NOC); test: Morphine abstinence model: activity of synthase of nitrogen oxide (radiometric, [3H]L-citrulline); assay type: in vivo, rats Wistar; conditions: morphine alone
thymus = test: Morphine abstinence model: thymus condition; assay type: in vivo, rats; conditions: morphine alone
Procedure: The effect of the compounds according to the invention on the condition of the thymus of the rats was also investigated: a control group, an experimental group of morphinized animals and an experimental group of animals were first morphinized and then injected with the compounds according to the invention. The experiment was carried out similarly to that described above.

Compound	MA - fall of optical density of plasma, % to the standard ([1]; 10^−3 M)	MA - fall of optical density of plasma, % to the standard ([1]; 10^−4 M)	MA - fall of optical density of plasma, % to the standard ([1]; 10^−5 M)	MA - drop of optical density, % compared to control ([1]; 10^−6 M)	MA - drop of optical density, % compared to control ([1]; 10^−7 M)	other results
O=c1[nH]n([C@@H]2O[C@H](CO)[C@@H](O)[C@H]2O)c(=O)c2nccc(O)c12.[Na].[Na] [Compound 4, disodium salt of 4-hydroxy-7-(βD-ribofuranosile)pyrido[2,3-d]-6H-pyridazine-5,8-dione]	49.2 ± 2.3 %	50.2 ± 2.0 %	46.2 ± 3.1 %	50.6 ± 3.1%	49.9 ± 3.4%	
Nc1cnc2c(=O)[nH][nH]c(=O)c2n1.[Na] [Compound 28, sodium salt of 2-amino-pyrazine[2,3-d]-6H-pyridazine-5,8-dione]	49.7 ± 2.2 %	48.9 ± 2.4 %	44.2 ± 2.7 %		50.4 ± 3.0%	
sodium salt of 5-amino-2-(CP(β-D-ribofuranosile)benzo[d]-3H-pyridazine-1,4-dione [Compound 10]	46.2 ± 2.7 %	48.7 ± 2.4 %	40.2 ± 4.0 %	48.4 ± 2.4%	49.8 ± 2.0%	number of electrons participating in the reduction ([2]; calculated with the Geirovsky-Ilkovich equation): 4.09; i, mkA (polarographic wave current) ([2]; pH 7.0): 0.23 ± 0.03 mkA; −E1/2, V (half-wave potential vs SCE) ([2]; pH 7.0): 0.092 ± 0.02 V; i, mkA (polarographic wave current) ([2]; pH 7.2): 0.30 ± 0.01 mkA; −E1/2, V (half-wave potential vs SCE) ([2]; pH 7.2): 0.09 ± 0.01 V; i, mkA (polarographic wave current) ([2]; pH 7.4): 0.29 ± 0.02 mkA; −E1/2, V (half-wave potential vs SCE) ([2]; pH 7.4): 0.092 ± 0.02 V; i, mkA (polarographic wave current) ([2]; pH 7.6): 0.31 ± 0.02 mkA; −E1/2, V (half-wave potential vs SCE) ([2]; pH 7.6): 0.09 ± 0.01 V; half-wave potential more positive on reverse stroke than on forward stroke ([2]; reverse stroke vs forward stroke): 30.0 mV
Nc1ncnc2c(=O)n([C@@H]3O[C@H](CO)[C@@H](O)[C@H]3O)[nH]c(=O)c12.[Na] [Compound 31, sodium salt of 4-amino-7-(β-D-ribofuranosile)pyrimido[4,5-d]-6H-pyridazine-5,8-dione]	44.9 ± 2.3 %	46.7 ± 2.2 %	39.9 ± 2.1 %	47.5 ± 1.7 %	49.5 ± 1.2%	
O=c1[nH]n([C@@H]2O[C@H](CO)[C@@H](O)[C@H]2O)c(=O)c2ccccc12.[Na] [Compound 9, sodium salt of 2-(β-D-ribofuranosile)benzo[d]-3H-pyridazine-1,4-dione]	47.3 ± 2.0 %	53.1 ± 1.8 %	41.4 ± 3.4 %	49.4 ± 3.2%	51.2 ± 1.7%	
CN1CC[C@]23c4c5ccc(O)c4O[C@H]2[C@@H](O)C=C[C@H]3[C@H]1C5 [Morphine, reference compound]						activity of the calcium-dependent form NOC in the liver [3]: rise of activity of the calcium-dependent form NOC; activity of the calcium-independent form NOC in the liver [3]: decrease of activity of the calcium-independent form NOC; Nitrites, thymus Supernatant, Administration of morphine (thymus): 0.511 ± 0.05 nmol/mg of protein; Thymus mass, Administration of morphine (thymus): 145 ± 9 mg
